Results as given in BindingDB's records for doi:10.1021/jm061268p (University of Arizona, 2007).
pIC50: −log10 of the molar value.

Molecular target: T1, Cholecystokinin receptor type A (Homo sapiens, UniProt P32238)
T1 sequence (P32238 whole entry): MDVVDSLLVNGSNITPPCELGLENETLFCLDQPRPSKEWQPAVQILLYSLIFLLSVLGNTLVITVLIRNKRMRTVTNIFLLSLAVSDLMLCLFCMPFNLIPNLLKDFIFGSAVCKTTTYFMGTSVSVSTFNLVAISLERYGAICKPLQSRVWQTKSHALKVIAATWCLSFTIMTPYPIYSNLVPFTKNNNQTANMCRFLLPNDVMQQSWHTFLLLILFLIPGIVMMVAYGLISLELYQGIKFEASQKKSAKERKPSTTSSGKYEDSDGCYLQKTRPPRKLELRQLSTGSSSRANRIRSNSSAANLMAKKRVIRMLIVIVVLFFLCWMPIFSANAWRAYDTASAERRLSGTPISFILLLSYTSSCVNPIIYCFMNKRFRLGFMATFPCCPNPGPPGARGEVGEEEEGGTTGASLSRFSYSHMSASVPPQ
Experiment: Displacement of [125I]CCK8-SO3 from human CCK1 receptor expressed in HEK293 cells

Compound: CCCC[C@@H](NC(=O)[C@H](Cc1c[nH]c2ccccc12)NC(=O)OC(C)(C)C)C(=O)N[C@H](CC(=O)O)C(=O)N[C@H](Cc1ccccc1)C(=O)NNC(=O)[C@H](Cc1ccccc1)NC(=O)CNC(=O)[C@@H](C)NC(=O)[C@@H](N)Cc1ccc(O)cc1 [H-Tyr-D-Ala-Gly-Phe-NH-NH-D-Phe-D-Asp-D-Nle-Trp-Boc]
- pIC50: 8.30

Compound: CCCC[C@@H](NC(=O)[C@@H](CC(=O)O)NC(=O)[C@H](N)Cc1ccccc1)C(=O)N[C@@H](Cc1c[nH]c2ccccc12)C(=O)NNC(=O)[C@H](Cc1ccccc1)NC(=O)CNC(=O)[C@@H](C)NC(=O)[C@@H](N)Cc1ccc(O)cc1 [H-Tyr-D-Ala-Gly-Phe-NH-NH-Trp-D-Nle-D-Asp-D-Phe-H]
- pIC50: 8.24

Compound: CCCC[C@H](NC(=O)[C@H](CC(=O)O)NC(=O)[C@@H](N)Cc1ccccc1)C(=O)N[C@H](Cc1c[nH]c2ccccc12)C(=O)NNC(=O)[C@H](Cc1ccccc1)NC(=O)CNC(=O)[C@@H](C)NC(=O)[C@@H](N)Cc1ccc(O)cc1 [H-Tyr-D-Ala-Gly-Phe-NH-NH-D-Trp-Nle-Asp-Phe-H]
- pIC50: 8.29
